Measured values from US20100222371A1, “PREVENTION OF SURGICAL ADHESIONS” (CHILDREN'S MEDICAL CENTER CORPORATION, priority 2008, published 2010).
Where “and” joins values, the source holds several entries; their conditions need not be identical. Identical values can stand only once. Entries after “also recorded” stand apart in the source; their conditions may differ.

Assays:
adhesion formation = experiment: Mouse adhesion model (silicone patch on abdominal wall, cecal abrasion), Example 1; format: in vivo, C57BL/6 mice
Method: Ten 7 week old male C57BL/6 mice were anesthetized with isoflurane and a midline laparotomy was performed. A 5.0 mm×5.0 mm piece of sterile silicone was attached to the right abdominal wall with 7.0 prolene sutures. The cecum then was gently rubbed with 2 cotton swabs to promote adhesion formation.
Two groups of 5 mice were treated with either 40 mg/kg/day of sunitinib in methylcellulose or methyl cellulose alone beginning the day before the adhesion operation and administered daily for 10 days. After 10 days of treatment, the animals were anesthetized with avertin, sacrificed, and the adhesions were scored.
The total adhesion score was the sum of the 3 individual scores. A minimum score was 0 and the maximum score was 12. Tenacity was rated as none (0), adhesions fell apart (1), lysed with traction (2), lysed with blunt dissection (3), and lysed with sharp dissection (4). Extent was measured as the percent of the patch covered by adhesion: 0% (0), <25% (1), 25 to 50% (2), 50 to 75% (3), and >75% (4). Cecal adhesions were graded as none (0), adhesions fell apart (1), lysed with traction (2), lysed with blunt dissection (3), and lysed with sharp dissection (4). The differences between the treated and untreated groups were significant (P=0.021).

[1] = test system: intra-abdominal adhesion formation; experiment: Standard mouse adhesion model (cecal abrasion, silicone patch), Example 2, sacrifice on postoperative day 10 or 30; format: in vivo, C57BLJ6 mice; settings: for Median cecal: median cecal adhesion score 0-4 (IQR); for Median extent / Median tenacity: median score 0-4 (IQR); for Total score: total median adhesion score 0-12 (IQR); for intra-abdominal adhesion formation compared with control: FIG. 1, FIG. 2; for long-term intra-abdominal adhesion formation compared with control: FIG. 3
Method: Thirty-seven 6- to 8-wk old C57BLJ6 mice (The Jackson Laboratory, Bar Harbor, Me.) were housed in cages of five mice with food and water ad libitum. The mice were acclimated to the facility for at least 72 h prior to surgery. A standard mouse adhesion model was performed as previously described (Chiang S C., et al (2000) J Pediatr Surg 35:189). After the mice were anesthetized with inhaled isoflurane, a midline incision was made, the cecum was eviscerated, rubbed gently with two cotton swabs, and then returned to anatomical position. A silicone patch (5.0×5.0×0.127 mm) (Bentec Medical, Woodland, Calif.) was sutured to the right abdominal wall, lateral to the epigastric vessels, with 7-0 nylon. One day prior to surgery, the mice were randomly treated with sunitinib (40 mg/kg in 100 methylcellulose) or methylcellulose control (100 uL). This dose was selected based on previous studies (Morimoto A M., (2004) Oncogene 23:1618; Takahashi H., et al (2006) J Ocul Pharmacol Ther 22:213; Pietras K., et al (2005) J Clin Ocol 23:939) Both groups were treated daily by orogastric gavage at the same dose for 10 days. On postoperative day 10, the mice were sacrificed and adhesions were scored by an observer who was blinded to the treatment groups, based on a previously described scoring system (Chiang S C., et al (2000), supra). The experiment was then repeated with sacrifice on postoperative day 30. The adhesion score was based on the extent of the patch covered by adhesions, the tenacity of adhesions to the patch, and the strength of cecal adhesions. Each criterion was scored from 0-4 and the sum of the three scores was the final adhesion score. The lowest and highest possible scores were 0 and 12, respectively. The tenacity of the adhesions to the patch was scored: 0=none, 1=adhesions fell apart, 2=lysed with traction, 3=lysed with blunt dissection, 4=lysed with sharp dissection. The extent of the patch covered was scored: 0=0%, 1=<25%, 2=25% to 50%, 3=50% to 75%, 4=>75%. The tenacity of cecal adhesions was scored: 0=none, 1=adhesions fell apart, 2=lysed with traction, 3=lysed with blunt dissection, 4=lysed with sharp dissection. Statistical analysis of adhesion scores was conducted using the Mann-Whitney rank sum test. The conventional 2-tailed P-value of 0.05 was used to establish significance. The results are presented as median adhesion score and interquartile range (IQR: 25th-75th percentile). The statistical program used was SigmaStat (SPSS, Chicago, Ill.).

adhesions of the uterus = experiment: Standard rabbit adhesion procedure (uterine horn abrasion), Example 3; format: in vivo, New Zealand white rabbits; settings: for Extent of Uterus Covered: median percent involvement score 0-4 (IQR); for Extent of Uterus Covered / Total score / Adhesion Free Rabbits: 10 mg/kg daily for ten days; for Extent of Uterus Covered / Total score: p=0.003; for Total score: median total adhesion score (IQR); for Adhesion Free Rabbits: number of rabbits out of N = 8 surviving
Method: Twenty female New Zealand white rabbits underwent a standard rabbit adhesion procedure. The uterus and its bilateral horns were eviscerated, and abraded with the scalpel until punctate hemorrhages appeared. Collateral blood supply in the right mesosalpinx was tied off with 5-0 silk ties. The uterus was then returned to normal anatomic position. One day prior to surgery, the rabbits were randomly assigned to be treated with sunitinib at a dose of 10 mg/kg or saline control via orogastric gavage. Both groups were treated daily for a total of ten days. On postoperative day ten, the rabbits were sacrificed and their adhesions were scored by two observers who were blinded to their treatments. Adhesions are graded based on their tenacity (0=no adhesions, 1=adhesions fall apart, 2=adhesions lysed by traction, 3=adhesions lysed with blunt dissection, 4=adhesions lysed with sharp dissection) and the percent of uterus involved (0=none, 1=<25%, 2=25-50%, 3=51-75%, 4=>75%).

[2] = long-term, postoperative day 30, treated 10 d, n = 10, P=0.049
[3] = long-term, postoperative day 30, treated 10 d, n = 10, P=0.049, listed as sunitinib
[4] = postoperative day ten, N = 8, 10 mg/kg
[5] = postoperative day ten, N = 8, listed as Sunitinib + saline, 10 mg/kg

## CCN(CC)CCNC(=O)c1c(C)[nH]c(/C=C2\C(=O)Nc3ccc(F)cc32)c1C [Sunitinib, sunitinib malate]
Adhesion formation; 7 week old male C57BL/6 mice, Table 1 study, P=0.021
  adhesion prevention vs vector only control: significantly prevention adhesion formation
Adhesion formation; observation on individual mouse at scoring, 40 mg/kg/day, 10 days
  comments: Looked good
Adhesion formation; score of individual mouse, 0 (none) to 4 (lysed with sharp dissection), 40 mg/kg/day in methylcellulose, daily for 10 days from day before operation, scored after 10 days, listed as SU11248, 40 mg/kg/day
  Tenacity: 1 and 0 (3×) and 2
Adhesion formation; score of individual mouse, 0 (none) to 4 (lysed with sharp dissection), 40 mg/kg/day, 10 days, listed as SU11248, 40 mg/kg/day
  Cecal adhesions: 2 (2×) and 0 (2×) and 1
Adhesion formation; score of individual mouse, percent of patch covered: 0% (0), <25% (1), 25 to 50% (2), 50 to 75% (3), >75% (4), 40 mg/kg/day, 10 days, listed as SU11248, 40 mg/kg/day
  Extent: 3 (2×) and 0 (3×)
Adhesion formation; total adhesion score of individual mouse, sum of 3 scores, 0-12, 40 mg/kg/day, 10 days, treated vs untreated P=0.021, listed as SU11248, 40 mg/kg/day
  Total: 6 and 2 and 0 and 1 and 5
[1]; long-term, postoperative day 30, treated 10 d, n = 10, P=0.225
  Median cecal: 0 (IQR 0-2.0)
[1]; long-term, postoperative day 30, treated 10 d, n = 10, P=0.225, listed as sunitinib
  Median cecal: 0.0 (IQR 0-2.0)
[1]; [2]
  Median extent: 0 (IQR 0-1.0)
  Total score: 0 (IQR 0-3.0)
[1]; [3]
  Median extent: 0.0 (IQR 0-1.0)
  Total score: 0.0 (IQR 0.0-3.0)
[1]; long-term, postoperative day 30, treated 10 d from day prior to surgery, n = 10, P=0.011
  Median tenacity: 0 (IQR 0-0.5)
[1]; long-term, postoperative day 30, treated 10 d from day prior to surgery, n = 10, P=0.011, listed as sunitinib
  Median tenacity: 0.0 (IQR 0.0-0.5)
[1]; long-term, postoperative day 30, number of mice out of n = 10
  Adhesion free mice: 6
[1]; long-term, postoperative day 30, six of 10 mice
  mice completely adhesion-free: 60%
[1]; postoperative day 10, P=0.002
  intra-abdominal adhesion formation compared with control: significantly decreased
[1]; postoperative day 10, P=0.002, listed as sunitinib
  intra-abdominal adhesion formation compared with control: adhesion free; also recorded: significantly decreased
[1]; postoperative day 10, 40 mg/kg daily gavage for 10 days, n = 18, P=0.002
  Median cecal: 2.0 (IQR 0-2.0)
[1]; postoperative day 10, 40 mg/kg daily gavage for 10 days, n = 18, P vs control 0.091 (Table 3), 0.91, 40 mg/kg
  Median extent: 0 (IQR 0-2.0)
[1]; postoperative day 10, 40 mg/kg daily gavage for 10 days, n = 18, P vs control 0.091 (Table 3), 0.91, listed as sunitinib, 40 mg/kg
  Median extent: 0.0 (IQR 0-2.0)
[1]; postoperative day 10, 40 mg/kg daily orogastric gavage for 10 days, n = 18, P vs control 0.068 (Table 3), 0.68, 40 mg/kg
  Median tenacity: 0 (IQR 0-1.0)
[1]; postoperative day 10, 40 mg/kg daily orogastric gavage for 10 days, n = 18, P vs control 0.068 (Table 3), 0.68, listed as sunitinib, 40 mg/kg
  Median tenacity: 0.0 (IQR 0.0-1.0)
[1]; postoperative day 10, number of mice out of n = 18, 40 mg/kg daily for 10 days
  Adhesion free mice: 6
[1]; postoperative day 10, six of 18 mice, 40 mg/kg daily for 10 days
  mice completely adhesion-free: 33.3%
[1]; postoperative day 10, 40 mg/kg daily gavage for 10 days, n = 18, P=0.002, 40 mg/kg
  Total score: 2.0 (IQR 0-5.0)
[1]; postoperative day 10, 40 mg/kg daily gavage for 10 days, n = 18, P=0.002, listed as sunitinib, 40 mg/kg
  Total score: 2.0 (IQR 0.0-5.0)
[1]; postoperative day 30, P=0.049
  long-term intra-abdominal adhesion formation compared with control: significantly decreased
[1]; postoperative day 30, P=0.049, listed as sunitinib
  long-term intra-abdominal adhesion formation compared with control: decreased
Adhesions of the uterus; FIG. 4, treated rabbit
  abdominal cavity adhesions in micrograph: free from abdominal cavity adhesions
Adhesions of the uterus; [4]
  Extent of Uterus Covered: 1.0 (IQR 0-1.0; range 0-1)
  Total score: 2 (IQR 0-2.75; range 0-3)
Adhesions of the uterus; [5]
  Extent of Uterus Covered: 1.0
  Total score: 2.0
Adhesions of the uterus; median score 0-4 (IQR), 10 mg/kg daily orogastric gavage for ten days from day prior to surgery, postoperative day ten, N = 8, p=0.004, listed as Sunitinib + saline, 10 mg/kg
  Tenacity to Uterus: 1.0
Adhesions of the uterus; postoperative day ten, 10 mg/kg
  Adhesion Free Rabbits: Three of the eight
Adhesions of the uterus; postoperative day ten, listed as Sunitinib + saline, 10 mg/kg
  Adhesion Free Rabbits: 3
